# Results from patent US8445502B2, “Pharmaceutical formulations comprising salts of a protein kinase inhibitor and methods of using same” (Astex Pharmaceuticals, Inc., priority 2007, dated 2013).
# Key:
# [1] = in vivo; settings: both, beagle, dog, iv
# Experimental: The purpose of these studies was to determine the highest level of MP470 free base that can be administered intravenously to dogs without causing extreme illness, maximum tolerated dose (MTD). In both studies a single male and a single female beagle dog were injected intravenously with MP470.
# In the second study we tested doses of 0.625, 1.25, 2.5, 5, 10, and 20 mg/kg MP470 in 1 male and 1 female beagle dog with 48-96 hrs between dose escalations, with the exception of 11 days between dose 5 and 6. Additionally, in this study approximately 5-10 second electrocardiograph (ECG) tracings in a lead II configuration were obtained from each dog prior to each dose, approximately 20 minutes after the start of dosing, and immediately after completion of dosing.
# [2] = log P by shake-flask octanol/water partitioning; assay type: physicochemical; settings: aqueous phase citrate buffer pH 2
# Experimental: The log P value for MP470 was determined by the traditional shake-flask method with octanol/water partitioning. Citrate buffer at pH 2 was the aqueous phase. The concentration of the solute in the organic phase was analyzed by HPLC analysis of MP470 with respect to a calibration curve ranging from 0.2 to 200 μg/mL MP470. The majority of MP470 was found in the organic phase. The log P value of MP470 was determined to be 2.3.
# [3] = rat, in vivo, iv, 10 mg/kg
# Experimental: In the first IV administration study of MP470 free base, six groups of 6 rats were to be exposed to either vehicle alone or MP470 at 10, 20, 40, 80, or 160 mg/kg. Dosing was administered via a tail vein over approximately 30 minutes. Animals were observed immediately and 10 minutes and one hour after dosing, and daily thereafter for 4 additional days. […] Red urine and lethargy were present at 1 hour post dosing, but animals recovered and appeared normal thereafter. […] All other animals were euthanized and necropsied at day 4 appeared normal.
# [4] = tested on: SF-767 glioblastoma multiforme cells; experiment: MTS cell death assay with ionizing radiation; assay type: cell-based
# Experimental: SF-767 glioblastoma multiforme cells were treated with MP470 at 1 μM, 800c Gy IR (ionizing radiation), or a combination of both.
# [5] = tested on: Rad51 in A549 non-small cell lung cancer cells; experiment: Rad51 protein level by Western blot in cells; assay type: cell-based; settings: MP470.HCl alone, 24 hrs
# Experimental: Rad51 protein levels were also determined in A549 non-small cell lung cancer cells using combinations with DNA damaging agents. Cells were treated for 24 hrs with 6.1 μM (IC30 of carboplatin alone) carboplatin in combination with 0.71 μM or 3.82 μM MP470.HCl. Protein lysates were isolated from treated and non-treated cells, separated by SDS-PAGE, and transferred to nitrocellulose. […] The increase in Rad51 due to carboplatin treatment was reduced by 26% when treated in combination with 0.71 μM MP470.HCl and by 42% with 3.82 μM MP470.HCl
# [6] = tested on: A549 NSCLC cells; experiment: Sensitization of NSCLC cells to carboplatin; assay type: cell-based; settings: Homo sapiens; A549, single agent
# Experimental: (§1) The non-small cell lung cancer cell lines A549 and NCI-H647 were used for these experiments. […] The IC50 concentrations observed for carboplatin against both of these cell lines was consistent with this.
# (§2) Two sub-IC50 doses of MP470.HCl were tested in combination with carboplatin to evaluate possible synergism between these agents and consequently a lower IC50 value for carboplatin in each of the cell lines.
# (§3) MP470.HCl was able to dramatically decrease the IC50 of carboplatin in these cells.
# [7] = tested on: NCI-H647 NSCLC cells; experiment: Sensitization of NSCLC cells to carboplatin; assay type: cell-based; settings: Homo sapiens; NCI-H647, single agent
# Experimental: as §1, §2, §3
# [8] = tested on: Rad51; experiment: Rad51 immunohistochemistry in dog colon and skin; assay type: in vivo; settings: for Rad 51 Result: 2 wk post treatment with 300 mg/kg/day × 28, dog 302786
# Experimental: A study was performed to develop a testing procedure for validation of IHC Biomarker RAD51 for the staining of tissue micro arrays (TMA). An experimental […] antibody was used (Spring Bioscience Anti-RAD51) and run using testis and lung as control tissues. The antibody was run using the Dako Envision+ detection kit. The incubation times ranged from 15 minutes to 60 minutes. Each experiment was run with and without an antigen retrieval solution with a pH of 6.0. The dilutions used for the Spring Bioscience Anti-RAD51 ranged from 1:50 to 1:500. The best results were obtained when incubated for 30 minutes, with a dilution of 1:50, using the Dako Envision+ detection kit, with antigen retrieval at the pH of 6.0 based on manual scoring by a board certified pathologist. […] Rare nuclear staining was observed.
# A study was conducted to investigate the changes in RAD51 expression levels after chronic treatment with MP470 hydrochloride salt two weeks post treatment with oral once daily dosing for 28 days at 300 mg/kg compared to the control (vehicle only, no drug) to healthy dogs. Tissue specimens from the colon and skin were analyzed for RAD51 expression using the procedure described above. The data in Table 9 confirm that MP470.HCl suppresses and sustains the suppression of RAD51 expression levels in normal proliferating tissues such as in colon and skin.
# Dose-response effects of MP470.HCl on Rad51 were evaluated in normal beagle dogs that were administered MP470.HCl orally. Colon and skin tissues were obtained from five different groups, including vehicle control group, three groups of differing dose levels of MP470.HCl following a 28 day daily treatment with MP470.HCl, and a post-treatment recovery group two weeks after treatment daily for 28 days with 300 mg/kg of MP470.HCl. These tissue specimens were stained for Rad51 using immunohistochemistry (IHC) techniques on an automated staining platform. A mouse Anti-Rad51 antibody was used for this purpose. Positive and negative controls were used to validate the staining procedure. The data is reported as a percentage based on the scoring of the staining intensity by a board-certified pathologist. Staining intensity was reported as mean percent for n=3 in all cases except the recovery group, where n=1.
# [9] = tested on: DMS-153 SCLC cells; experiment: Sensitization of SCLC cells to etoposide; assay type: cell-based; settings: Homo sapiens; DMS-153, single agent
# Experimental: (§4) Therefore, to determine if MP470 would increase sensitivity to etoposide treatment, SCLC cells were treated with the agents individually and in combination. […] Two sub-IC50 doses of MP470.HCl were tested in combination with etoposide to evaluate possible synergism and a resulting lower IC50 value for etoposide in each of the cell lines.
# [10] = tested on: DMS-114 SCLC cells; experiment: Sensitization of SCLC cells to etoposide; assay type: cell-based; settings: Homo sapiens; DMS-114, single agent
# Experimental: as §4
# [11] = target: Flt3 (D835Y) (h) (Homo sapiens, UniProt P36888, D835Y); experiment: Mutant kinase IC50 screen; assay type: biochemical
# Experimental: (§5) IC50 values for MP470.HCl were determined for four mutant c-Kit kinases, one mutant Flt3 kinase, and two mutant PDGFRα kinases.
# [12] = target: PDGFRα (D842V) (h) (Homo sapiens, UniProt P16234, D842V); experiment: Mutant kinase IC50 screen; assay type: biochemical
# Experimental: as §5
# [13] = target: cKit (D816V) (h) (Homo sapiens, UniProt P10721, D816V); experiment: Mutant kinase IC50 screen; assay type: biochemical
# Experimental: as §5
# cKit (D816V) (h), sequence (P10721 26-976 D816V): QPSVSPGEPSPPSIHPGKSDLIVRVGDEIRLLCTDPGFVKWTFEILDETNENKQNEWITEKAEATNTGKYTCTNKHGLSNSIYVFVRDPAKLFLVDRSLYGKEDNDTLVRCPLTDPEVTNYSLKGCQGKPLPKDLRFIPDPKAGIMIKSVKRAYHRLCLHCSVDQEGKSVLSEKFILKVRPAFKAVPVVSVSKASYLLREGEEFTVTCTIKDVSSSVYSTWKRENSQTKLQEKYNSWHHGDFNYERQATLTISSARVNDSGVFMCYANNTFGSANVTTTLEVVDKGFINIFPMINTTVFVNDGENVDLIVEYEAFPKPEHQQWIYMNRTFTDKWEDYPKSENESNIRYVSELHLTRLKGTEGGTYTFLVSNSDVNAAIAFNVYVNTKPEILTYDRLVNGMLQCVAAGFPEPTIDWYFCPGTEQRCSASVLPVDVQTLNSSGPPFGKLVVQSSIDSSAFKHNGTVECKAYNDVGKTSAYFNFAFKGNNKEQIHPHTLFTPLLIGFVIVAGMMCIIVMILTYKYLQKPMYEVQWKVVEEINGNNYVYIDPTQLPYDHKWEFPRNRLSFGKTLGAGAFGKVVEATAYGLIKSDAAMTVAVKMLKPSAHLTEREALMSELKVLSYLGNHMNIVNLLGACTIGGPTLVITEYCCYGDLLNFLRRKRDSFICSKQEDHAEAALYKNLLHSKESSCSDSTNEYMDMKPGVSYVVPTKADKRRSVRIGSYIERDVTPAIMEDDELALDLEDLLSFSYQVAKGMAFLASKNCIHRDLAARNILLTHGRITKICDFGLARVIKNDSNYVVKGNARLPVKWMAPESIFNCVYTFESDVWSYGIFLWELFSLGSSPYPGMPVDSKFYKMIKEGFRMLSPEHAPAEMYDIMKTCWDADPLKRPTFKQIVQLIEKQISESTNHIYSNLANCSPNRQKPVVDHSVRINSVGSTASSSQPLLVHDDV
# PDGFRα (D842V) (h), sequence (P16234 24-1089 D842V): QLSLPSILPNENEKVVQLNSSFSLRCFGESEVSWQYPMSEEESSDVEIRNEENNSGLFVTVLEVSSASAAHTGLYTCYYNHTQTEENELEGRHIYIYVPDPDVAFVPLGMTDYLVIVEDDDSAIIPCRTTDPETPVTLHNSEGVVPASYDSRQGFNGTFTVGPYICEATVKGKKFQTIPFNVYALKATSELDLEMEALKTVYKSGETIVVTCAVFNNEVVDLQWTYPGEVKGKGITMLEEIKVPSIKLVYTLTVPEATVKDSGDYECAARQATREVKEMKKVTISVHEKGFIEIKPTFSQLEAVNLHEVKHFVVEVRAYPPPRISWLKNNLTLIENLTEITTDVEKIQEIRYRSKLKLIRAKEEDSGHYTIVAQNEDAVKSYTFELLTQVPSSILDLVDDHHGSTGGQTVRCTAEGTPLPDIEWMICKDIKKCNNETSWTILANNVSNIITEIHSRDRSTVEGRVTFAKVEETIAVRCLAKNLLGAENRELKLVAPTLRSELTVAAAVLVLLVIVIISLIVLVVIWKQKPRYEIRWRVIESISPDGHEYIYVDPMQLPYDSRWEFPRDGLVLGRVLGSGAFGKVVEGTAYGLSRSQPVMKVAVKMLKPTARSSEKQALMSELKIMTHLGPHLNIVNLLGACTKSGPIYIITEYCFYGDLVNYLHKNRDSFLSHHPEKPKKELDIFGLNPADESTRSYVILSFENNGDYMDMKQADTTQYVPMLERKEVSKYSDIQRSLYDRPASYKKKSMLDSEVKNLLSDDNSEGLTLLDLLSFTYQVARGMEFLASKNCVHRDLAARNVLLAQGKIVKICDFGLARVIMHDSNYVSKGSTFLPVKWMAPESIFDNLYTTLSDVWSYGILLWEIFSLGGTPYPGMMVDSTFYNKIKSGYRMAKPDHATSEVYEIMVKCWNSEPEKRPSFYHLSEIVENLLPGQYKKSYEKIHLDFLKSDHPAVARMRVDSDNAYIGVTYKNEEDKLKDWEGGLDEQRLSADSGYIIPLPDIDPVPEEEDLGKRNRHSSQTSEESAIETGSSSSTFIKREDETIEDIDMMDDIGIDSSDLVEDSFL
structure (smiles),measurement,setting,value
"S=C(NCc1ccc2c(c1)OCO2)N1CCN(c2ncnc3c2oc2ccccc23)CC1 [MP470, 4-[1]benzofuro[3,2-d]pyrimidin-4-yl-N-(1,3-benzodioxol-5-ylmethyl)piperazine-1-carbothioamide]",MTD at 0.5 h,[1],10 mg/kg
same,logP,[2],2.3
same,mortality at the low dose,[3],the third rat died after dosing
same,Increase in cell death over either agent alone,[4]; MP470 1 μM combined with 800c Gy ionizing radiation,more than two-fold
same,Cell death (MTS assay),[4]; MP470 at 1 μM alone,will induce cell death
"Cl.S=C(NCc1ccc2c(c1)OCO2)N1CCN(c2ncnc3c2oc2ccccc23)CC1 [MP470.HCl, 4-[1]benzofuro[3,2-d]pyrimidin-4-yl-N-(1,3-benzodioxol-5-ylmethyl)piperazine-1-carbothioamide hydrochloride]",Rad51 expression,[5],did not alter the expression of Rad51
same,IC50,[6],6.9 µM
same,IC50,[7],7.86 µM
same,Rad51 staining Skin (%),"[8]; 30 mg/Kg oral daily 28 days, n=3 (vehicle 20)",14%
same,Rad51 staining Colon (%),"[8]; 30 mg/Kg oral daily 28 days, n=3 (vehicle 71)",61%
same,Rad51 staining Skin (%),"[8]; 100 mg/Kg oral daily 28 days, n=3 (vehicle 20)",17%
same,Rad51 staining Colon (%),"[8]; 100 mg/Kg oral daily 28 days, n=3 (vehicle 71)",56%
same,Rad51 staining Skin (%),"[8]; 300 mg/Kg oral daily 28 days, n=3 (vehicle 20)",11%
same,Rad51 staining Colon (%),"[8]; 300 mg/Kg oral daily 28 days, n=3 (vehicle 71)",35%
same,suppression of Rad51 in tissues of dogs,"[8]; 30, 100, 300 mg/kg oral daily 28 days",dose-dependent suppression of Rad51
same,Rad 51 Result,[8]; Colon,58%
same,Rad51 staining Skin (%),"[8]; Recovery (2 wk post treatment with 300 mg/kg), n=1 (vehicle 20)",7%
same,Rad51 staining Colon (%),"[8]; Recovery (2 wk post treatment with 300 mg/kg), n=1 (vehicle 71)",19%
same,Rad 51 Result,[8]; Skin,12%
same,IC50,[9],5.14 µM
same,IC50,[10],0.98 µM
same,IC50,[11],8.05 µM
same,IC50,[12],0.081 µM
same,IC50,[13],0.95 µM
